Laboratory results: patent US20030068615A1, “Polypeptides that bind HIV gp120 and related nucleic acids, antibodies, compositions, and methods of use” (priority 1999, published 2003)
Values joined by “and” are separate entries in the source; they are usually repeats but may differ in a detail not shown here. Identical values can stand only once.

The sequences below were run against HIV-1LAI envelope gp120 (Human immunodeficiency virus type 1 group M subtype B, UniProt P03377). Conditions: Panel C, 15-mers and 18-mers of CD4; empty control 556.
Assay type: binding

Sequence	COUNTS of radiolabeled gp120 retained
IDIVVLAFQKASSIVYKK	711 counts
VLQNQKKVEFKIDIV	605 counts
VYKKEGEQVEFSFPLAFT	4307 counts

Same assay, conditions: Panel D, 9-mers and 12-mers of CD4; empty control […]

Sequence	COUNTS of radiolabeled gp120 retained
IIKNLKIEDSDT	511 counts
DSDTYICEV	712 counts
YICEVEDQK	728 counts
EVQLLVFGLTAN	1838 counts
TYICEVEDQKEE	818 counts
DQKEEVQLLVFG	1624 counts
KEEVQLLVF	1273 counts
YICEVEDQKEEV	734 counts
SDTYICEVE	819 counts
HLLQGQSLT	564 counts
DQGNFPLIIKNL	604 counts

Same assay, conditions: Panel E, 9-mers and 12-mers of CD4; empty control 571

Sequence	COUNTS of radiolabeled gp120 retained
PLAFTVEKLTGS	528 counts
KLTGSGELW	491 counts
PLAFTVEKL	597 counts
EKLTGSGELWWQ	543 counts
QVEFSFPLAFTV	1636 counts
FQKASSIVYKKE	577 counts
KVEFKIDIVVLA	560 counts
VVLAFQKAS	600 counts
LAFQKASSIVYK	465 counts
LAFTVEKLT	501 counts
DIVVLAFQKASS	746 counts

Same assay, conditions: Panel F, sequential alanine replacements of CD4 polypeptides, duplicate series; empty control 569

Sequence	COUNTS of radiolabeled gp120 retained
THLLQGQSLALTLES	8158 counts and 4749 counts
THALQGQSLTLTLES	7683 counts and 5059 counts
THLLQGQSLTLTAES	862 counts and 797 counts

Same assay, conditions: Panel G, alanine replacements and serial truncations (Z) of CD4 polypeptides; empty control 580

Sequence	COUNTS of radiolabeled gp120 retained
GEQAEFSFPLAFTVE	14764 counts and 13000 counts
GAQVEFSFPLAFTVE	18079 counts and 17733 counts
GEQVEFSFALAFTVE	20480 counts and 19480 counts
GEQVEFSFPLAFTAE	18797 counts and 16765 counts

Same assay, conditions: STRL33 18-mer scan; background subtracted; first of two count columns

Sequence	radioactive counts recorded in twenty minutes
YGNVFNLDKLICGYHDEA	−41.5 counts
GYHDEAISTVVLATQMTL	754.5 counts
MPFNLMKFIRSTHWEYYA [STRL33 segment 245-262]	2171.5 counts
TCITVDRFIVVVKATKAY	89.5 counts
FSKVFLPCMYLVVFVCGL [STRL33 segment 29-46]	534.5 counts
GLVGNSLVLVISIFYHKL [STRL33 segment 45-62]	164.5 counts
FGQVMCKSLLGIYTINFY	1257.5 counts
FYTSMLILTCITVDRFIV [STRL33 segment 113-130]	744.5 counts
SEDNSKTFSASHNVEATS [STRL33 segment 321-338]	524.5 counts
VCTLPFWAYAGIHEWVFG [STRL33 segment 81-98]	1819.5 counts

Same assay, conditions: STRL33 18-mer scan; background subtracted; second of two count columns

Sequence	radioactive counts recorded in twenty minutes
YGNVFNLDKLICGYHDEA	−20.5 counts
GYHDEAISTVVLATQMTL	1181.5 counts
MPFNLMKFIRSTHWEYYA [STRL33 segment 245-262]	2182.5 counts
TCITVDRFIVVVKATKAY	346.5 counts
FSKVFLPCMYLVVFVCGL [STRL33 segment 29-46]	633.5 counts
GLVGNSLVLVISIFYHKL [STRL33 segment 45-62]	95.5 counts
FGQVMCKSLLGIYTINFY	1354.5 counts
FYTSMLILTCITVDRFIV [STRL33 segment 113-130]	907.5 counts
VCTLPFWAYAGIHEWVFG [STRL33 segment 81-98]	1754.5 counts

Same assay, conditions: STRL33 amino terminus; 9-mer starting at the first residue of the printed sequence; background subtracted

Sequence	Binding Results For Window Length (counts bound-background), 9
EEHQAFLQFSKV	6060 counts
HQAFLQFSK	2761 counts

Same assay, conditions: STRL33 amino terminus; 12-mer starting at the first residue of the printed sequence; background subtracted

Sequence	Binding Results For Window Length (counts bound-background), 12
EEHQAFLQFSKV	5598 counts

Same assay, conditions: human CD4 21-mer scan; empty control 2075

Sequence	number of radioactive decays (counts) counted
QLQKNLTCEVWGPTSPKLMLS [human CD4 321-341]	1856 counts
VMRATQLQKNLTCEVWGPTSP [human CD4 316-336]	2144 counts
NKEAKVSKREKAVWVLNPEAG	1735 counts
PMALIVLGGVAGLLLFIGLGI	3067 counts
KRLLSEKKTCQCPERFQKTCS [human CD4 436-456]	1674 counts
LKNKEVSVKPVTQDPKLQMGK [human CD4 256-276]	2288 counts
KKLPLHLTLPQALPQYAGSGN [human CD4 276-296]	1922 counts
